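Where inhibition never reached the appropriate level, the endpoint shown equals the highest concentration tested. Otherwise, values were interpolated linearly from a five-concentration, 48-hour dose response in 96-well plates. Abbreviation: GI50, concentration required for 50% inhibition of growth.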 The source made the active and inactive calls. Rule as the data show it: active = GI50 up to about 1.1 µM and inactive = higher. Some results are limits rather than exact numbers.

Some test systems named below: SK-MEL-5; SF-539; SK-OV-3; NCI-H460; RPMI-8226; OVCAR-5; U-251; Malme-3M; OVCAR-4; HOP-62; SN12C; HL-60; CCRF-CEM; HCT-15; IGROV-1; SNB-75; EKVX.
Common to all, as to test: NCI-60 cell line screen, 48 h

Regarding `Cc1nc2ccccc2c(=O)n1NC(=S)Nc1ccccc1`, the GI50 in the assay with SK-MEL-5, in the assay on SF-539, in the assay on SK-OV-3, in the assay with NCI-H460, in the assay on RPMI-8226 and in the assay with OVCAR-5 was > 100 µM (inactive) in each case. The GI50 with U-251 is > 100 µM (inactive); in the assay on Malme-3M, > 100 µM (inactive); in the assay with OVCAR-4, 91.2 µM (inactive); with HOP-62, > 100 µM (inactive); with SN12C, > 100 µM (inactive); in the assay on HL-60 it was > 100 µM (inactive). Moreover, the GI50 is > 100 µM (inactive) in the assay on CCRF-CEM, above 100 µM with HCT-15, > 100 µM (inactive) in the assay on IGROV-1 and 4.99 µM (inactive) in the assay with SNB-75.
`Clc1ccccc1C1SCc2nc3ccccc3n21` (centres undefined): the GI50 in the assay on SK-MEL-5 is 17.9 µM (inactive); in the assay with SF-539, 33.5 µM (inactive); in the assay with EKVX, 22.6 µM (inactive); with SK-OV-3, 27.6 µM (inactive); in the assay with NCI-H460, 30.1 µM (inactive); in the assay on RPMI-8226 it was 20 µM (inactive). Besides, the GI50 with OVCAR-5 was 17.6 µM (inactive); with U-251, 22.8 µM (inactive); in the assay with Malme-3M, 17.7 µM (inactive); in the assay with OVCAR-4 it was 18 µM (inactive); with HOP-62, 19.3 µM (inactive); in the assay on SN12C, 18 µM (inactive). Moreover, the GI50 in the assay with HL-60 is 13 µM (inactive); in the assay with CCRF-CEM, 30.3 µM (inactive); in the assay with HCT-15, 22.6 µM; with IGROV-1, 33.6 µM (inactive); in the assay on SNB-75 it was 3.97 µM (inactive).
Take `COC1OC(COCc2ccc(Cl)cc2)C(OCc2ccc(Cl)cc2)C1O` (centres undefined): the GI50 is 15.3 µM (inactive) with SK-MEL-5; 16.3 µM (inactive) with SF-539; 19.4 µM (inactive) in the assay on EKVX; 33.9 µM (inactive) in the assay on SK-OV-3; 17.4 µM (inactive) in the assay with NCI-H460; 23.9 µM (inactive) in the assay on RPMI-8226. In addition, the GI50 was 16.1 µM (inactive) in the assay with OVCAR-5; 15.6 µM (inactive) in the assay with U-251; 15.8 µM (inactive) in the assay on Malme-3M; 20.6 µM (inactive) in the assay on OVCAR-4; 17.5 µM (inactive) with HOP-62; 14.9 µM (inactive) in the assay on SN12C. The GI50 in the assay on HL-60 is 11.6 µM (inactive); in the assay on CCRF-CEM, 19.4 µM (inactive); in the assay with HCT-15 it was 16 µM; in the assay with IGROV-1, 22.8 µM (inactive); with SNB-75, 17.5 µM (inactive).
For `CSCC1CC(c2ccc(Cl)cc2)=NO1` (centres undefined), the GI50 in the assay on SK-MEL-5, in the assay with SF-539, with EKVX, in the assay on SK-OV-3, in the assay with NCI-H460 and in the assay with RPMI-8226 was > 100 µM (inactive) each time. The GI50 with OVCAR-5, in the assay with U-251, with Malme-3M, in the assay on OVCAR-4, in the assay with HOP-62 and in the assay on SN12C was > 100 µM (inactive) each time. Further, the GI50 is > 100 µM (inactive) with HL-60; > 100 µM (inactive) in the assay with CCRF-CEM; above 100 µM in the assay with HCT-15; > 100 µM (inactive) with IGROV-1; > 100 µM (inactive) with SNB-75.
For `COc1ccc(NC(=O)c2cc(OC)cc(OC)c2)cc1`, the GI50 is 9.38 µM (inactive) with SK-MEL-5; 25.1 µM (inactive) with SF-539; 24.2 µM (inactive) in the assay with EKVX; 31.4 µM (inactive) in the assay with SK-OV-3; 9.89 µM (inactive) with NCI-H460; 18 µM (inactive) in the assay on RPMI-8226. Also, the GI50 in the assay on OVCAR-5 was > 59.8 µM (inactive); in the assay on U-251, 17.5 µM (inactive); in the assay on Malme-3M, 36.6 µM (inactive); in the assay with OVCAR-4, > 100 µM (inactive); with HOP-62, > 36.5 µM (inactive); in the assay on SN12C, 67 µM (inactive). Besides, the GI50 in the assay with HL-60 was 6.98 µM (inactive); with CCRF-CEM it was 27.9 µM (inactive); in the assay on HCT-15 it was 6.93 µM; in the assay on IGROV-1, 28 µM (inactive); with SNB-75 it was 27.9 µM (inactive).
